Test systems include BT-549; CCRF-CEM; DU-145; HL-60; HOP-92; HT-29; Hs-578T; KM12; M14; MCF7; MDA-MB-231; Malme-3M; OVCAR-8; SK-MEL-28; SK-MEL-2; SK-MEL-5; SNB-19; UACC-62; SF-539.
Assay in all cases: NCI-60 cell line screen, 48 h

We go through 12 compounds from ChEMBL document CHEMBL1201862, “PubChem BioAssay data set” (2004).

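Following 48 hours of exposure in 96-well plates, responses at five concentrations were used to interpolate endpoints linearly. GI50 marks 50% less growth.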 Active and inactive are the calls of the source. Rule as the data show it: active = GI50 up to about 1.1 µM and inactive = higher.

Take `O=C1NC(=S)NC(=O)C1C(c1ccccc1[N+](=O)[O-])C1C(=O)NC(=S)NC1=O.c1ccncc1`: the GI50 was > 100 µM (inactive) with BT-549; > 100 µM (inactive) in the test with CCRF-CEM; > 100 µM (inactive) in the test with DU-145; 26.3 µM (inactive) with HL-60; > 100 µM (inactive) with HOP-92; > 100 µM (inactive) in the test with HT-29. Further, the GI50 in the test with Hs-578T, in the test on KM12, in the test with M14, with MCF7, in the test with MDA-MB-231 and with Malme-3M was > 100 µM (inactive) in each case. Also, the GI50 with OVCAR-8, with SK-MEL-28, in the test with SK-MEL-2, in the test with SK-MEL-5, in the test with SNB-19 and in the test on UACC-62 was > 100 µM (inactive) throughout.

Consider `CC1=NN(c2cccc(Cl)c2)C2(C1)C(Cl)C(=O)N2c1nc2ccccc2s1` (stereo not given), for which the GI50 in the test with BT-549 is 27.8 µM (inactive); in the test on DU-145, 37.1 µM (inactive); in the test on HL-60 it was 23.3 µM (inactive); in the test with HOP-92, 25.3 µM (inactive); in the test on HT-29, 33.6 µM (inactive); with Hs-578T, 45.2 µM (inactive). The GI50 was 22.3 µM (inactive) in the test on KM12; 22.5 µM (inactive) with M14; 32.1 µM (inactive) in the test with MCF7; 21.5 µM (inactive) with MDA-MB-231; 30.5 µM (inactive) in the test on Malme-3M; 32.5 µM (inactive) in the test with OVCAR-8. The GI50 is 17.1 µM (inactive) in the test with SK-MEL-2, 19.4 µM (inactive) with SK-MEL-5, 28.6 µM (inactive) in the test on SNB-19 and 31.1 µM (inactive) with UACC-62.

`Cn1c(=O)c2c(nc3n2CC(=O)N3CCCCl)n(C)c1=O`: the GI50 in the test with BT-549, in the test with CCRF-CEM, in the test on DU-145, in the test with HL-60, with HOP-92 and in the test on HT-29 was > 100 µM (inactive) in each case. Moreover, the GI50 in the test with Hs-578T, in the test on KM12, in the test with M14, with MCF7, with MDA-MB-231 and in the test with OVCAR-8 was > 100 µM (inactive) each time. For the same compound, the GI50 in the test with SK-MEL-28, in the test on SK-MEL-2, in the test with SK-MEL-5, with SNB-19 and in the test with UACC-62 was > 100 µM (inactive) in each case.

On to `Cc1cc(-c2nc3ccccc3s2)ccc1NC(=O)[C@@H](N)CCCCN`, for which the GI50 in the test with BT-549 is 10.1 µM (inactive); with CCRF-CEM, 6.92 µM (inactive); in the test on DU-145 it was 12.5 µM (inactive); with HOP-92 it was 16.1 µM (inactive); in the test on HT-29, 7.16 µM (inactive); in the test with Hs-578T it was 18.5 µM (inactive). The GI50 was 2.82 µM (inactive) in the test on KM12; 2.47 µM (inactive) in the test with M14; < 0.0301 µM (active) in the test on MCF7; 9.04 µM (inactive) with MDA-MB-231; 18.2 µM (inactive) with Malme-3M; 6.78 µM (inactive) in the test with OVCAR-8. For the same compound, the GI50 with SK-MEL-28 is 15.3 µM (inactive); in the test on SK-MEL-2, 13.4 µM (inactive); in the test with SK-MEL-5 it was 13.9 µM (inactive); in the test with SNB-19, 12 µM (inactive); with UACC-62 it was 13.8 µM (inactive).

As for `Clc1ccc2c(c1)CC1C[N+]3=C(CCCC3)C1=C2` (stereo not given), the GI50 in the test with BT-549 was 55.5 µM (inactive); in the test on CCRF-CEM, 83 µM (inactive); in the test with DU-145, > 100 µM (inactive); with HL-60, 40 µM (inactive); in the test on HOP-92 it was 63.5 µM (inactive); in the test with HT-29 it was 36.6 µM (inactive). Besides, the GI50 in the test with Hs-578T is > 100 µM (inactive); in the test with KM12, 57.8 µM (inactive); in the test on M14, 53.8 µM (inactive); in the test on MCF7, 61.1 µM (inactive); in the test with MDA-MB-231 it was 44.8 µM (inactive); with Malme-3M, 36.6 µM (inactive). The GI50 with OVCAR-8 was 60.7 µM (inactive); in the test with SK-MEL-28 it was > 100 µM (inactive); in the test on SK-MEL-2 it was > 100 µM (inactive); with SK-MEL-5 it was 50.4 µM (inactive); in the test with SNB-19, 48.3 µM (inactive); in the test on UACC-62 it was > 100 µM (inactive).

For `OC1c2ccccc2C(O)C2OC12` (stereo not given), the GI50 with BT-549, with CCRF-CEM, with DU-145, in the test with HL-60, in the test with HOP-92 and in the test on HT-29 was > 100 µM (inactive) each time. Moreover, the GI50 in the test on KM12, in the test on M14, with MCF7, in the test on MDA-MB-231, in the test with Malme-3M and in the test on OVCAR-8 was > 100 µM (inactive) throughout. The GI50 in the test with SF-539, in the test on SK-MEL-28, in the test on SK-MEL-2, in the test on SK-MEL-5, in the test on SNB-19 and in the test on UACC-62 was > 100 µM (inactive) in each case.

In the case of `CCOC(=O)N/N=C(/N)c1cccc(Br)c1`, the GI50 in the test on BT-549, in the test on CCRF-CEM, with DU-145, in the test on HL-60, with HT-29 and in the test with Hs-578T was > 100 µM (inactive) in each case. In addition, the GI50 with KM12, with M14, in the test on MCF7, with MDA-MB-231, in the test with Malme-3M and with OVCAR-8 was > 100 µM (inactive) throughout. Besides, the GI50 is > 100 µM (inactive) in the test with SF-539; > 100 µM (inactive) in the test with SK-MEL-2; > 100 µM (inactive) with SK-MEL-5; 78.9 µM (inactive) in the test with SNB-19; > 100 µM (inactive) with UACC-62.

On to `Nc1c([N+](=O)[O-])cc2c3c(cccc13)CC2`, for which the GI50 was 74.6 µM (inactive) in the test on BT-549; 90.6 µM (inactive) in the test on CCRF-CEM; 46 µM (inactive) with DU-145; 74.6 µM (inactive) in the test with HL-60; > 100 µM (inactive) in the test on HOP-92; 98.9 µM (inactive) with HT-29. Besides, the GI50 in the test with Hs-578T is > 100 µM (inactive); in the test on KM12, > 100 µM (inactive); in the test on M14, > 100 µM (inactive); in the test with MDA-MB-231, 38.9 µM (inactive); with OVCAR-8, 71.3 µM (inactive); in the test with SF-539, 31.5 µM (inactive). For the same compound, the GI50 in the test on SK-MEL-28 was > 100 µM (inactive); in the test with SK-MEL-2, 51.3 µM (inactive); in the test on SK-MEL-5, 53.2 µM (inactive); in the test on SNB-19, 86.3 µM (inactive); in the test with UACC-62, 85.1 µM (inactive).

For `CC1=NC(=Cc2cccc(Cl)c2)C(=O)N1n1c(-c2ccccc2)nc2ccccc2c1=O`, the GI50 with BT-549 was 34.7 µM (inactive); in the test on CCRF-CEM, 35.6 µM (inactive); in the test with DU-145, 38.9 µM (inactive); in the test with HL-60, 22.8 µM (inactive); in the test on HT-29 it was 36 µM (inactive); in the test on Hs-578T, 24.5 µM (inactive). Further, the GI50 with KM12 is 31.6 µM (inactive); with M14 it was 31.4 µM (inactive); in the test on MCF7, 20.4 µM (inactive); in the test with MDA-MB-231, 48.5 µM (inactive); in the test on Malme-3M it was 26.9 µM (inactive); in the test on OVCAR-8 it was 43.4 µM (inactive). For the same compound, the GI50 in the test with SF-539 was 36.1 µM (inactive); in the test on SK-MEL-28 it was > 10 µM (inactive); with SK-MEL-5 it was 28.2 µM (inactive); in the test with SNB-19 it was 59.2 µM (inactive); in the test with UACC-62, 23.6 µM (inactive).

Turning to `COc1cc(C)cc(C(=O)/C=C/c2ccccc2)c1O`, the GI50 was 17.4 µM (inactive) with BT-549; 27.7 µM (inactive) in the test on CCRF-CEM; 14.1 µM (inactive) in the test with DU-145; 26.4 µM (inactive) in the test on HL-60; 14.9 µM (inactive) in the test on HOP-92; 18.3 µM (inactive) in the test on HT-29. For the same compound, the GI50 was 32.8 µM (inactive) with Hs-578T; 18.5 µM (inactive) with KM12; 16.6 µM (inactive) in the test with M14; 12.1 µM (inactive) in the test on MCF7; 22.5 µM (inactive) in the test on MDA-MB-231; 19.2 µM (inactive) with OVCAR-8. Further, the GI50 in the test with SK-MEL-28 was 19.4 µM (inactive); with SK-MEL-2 it was 18.5 µM (inactive); in the test on SK-MEL-5, 19.8 µM (inactive); with SNB-19 it was 16 µM (inactive); in the test on UACC-62, 17.1 µM (inactive).

For the compound `O=S(=O)(O)c1ccc(O)c(/N=N/c2c(O)ccc3ccccc23)c1`, the GI50 with BT-549 is > 100 µM (inactive); in the test with CCRF-CEM, 36.6 µM (inactive); in the test with DU-145, > 100 µM (inactive); in the test on HOP-92, > 100 µM (inactive); in the test with HT-29 it was > 100 µM (inactive); in the test with Hs-578T it was > 100 µM (inactive). Also, the GI50 in the test on KM12, with M14, in the test on MDA-MB-231, in the test with OVCAR-8, in the test with SK-MEL-28 and in the test with SK-MEL-2 was > 100 µM (inactive) throughout. Also, the GI50 in the test on SK-MEL-5, with SNB-19 and in the test on UACC-62 was > 100 µM (inactive) throughout.

As for `C=C(C)C(=O)OC1C[C@H](COC(C)=O)C2CC=C(CO)C2C2OC(=O)C(=C)[C@H]12` (stereo not given in full), the GI50 with BT-549 was 61.1 µM (inactive); with CCRF-CEM, 10.4 µM (inactive); with DU-145, > 100 µM (inactive); in the test with HL-60 it was 23.1 µM (inactive); with HT-29, 32.3 µM (inactive); in the test with Hs-578T it was > 100 µM (inactive). Further, the GI50 is > 100 µM (inactive) in the test on KM12; 16.3 µM (inactive) with M14; 38.1 µM (inactive) with MCF7; 51.8 µM (inactive) in the test with MDA-MB-231; 16.8 µM (inactive) in the test on Malme-3M; > 100 µM (inactive) in the test on OVCAR-8. Further, the GI50 in the test on SF-539 was > 100 µM (inactive); in the test on SK-MEL-28, 32.3 µM (inactive); in the test on SK-MEL-2, 40.3 µM (inactive); in the test with SK-MEL-5 it was > 100 µM (inactive); in the test on SNB-19, > 100 µM (inactive); in the test on UACC-62, 39.6 µM (inactive).
